In one assay the test system is primary mouse PTE cells. Kind of assay: Intracellular calcium mobilization (Indo-1 AM) in PTE cells. The assay is classed as cell-based. How it is done:
FIGS. 9A-D. Induction of calcium mobilization by ionomycin, angiotensin II and osteopontin in PTE cells. Cells were incubated with 1 μM Indo-1 AM [1-(2-amino-5-(6-carboxyindol-2-yl)phenoxy)-2-(2'-amino-5'-methylphenoxy)ethane-N,N,N',N'-tetraacetic acid) and analyzed on a Meridian 570 Anchored Cell Analysis System (ACAS) equipped with an Innova 90 5-W laser adjusted to an output of 100 mW. Calcium mobilization was quantified by scanning single 150×150 μm fields containing about 10 cells every 30 s for a total of 10 min and quantifying the emission at 500 nm (calcium-free Indo-1) and 400 nm (calcium-bound Indo-1). After 1 min, the cells were stimulated with (A) control, (B) 10 μM ionomycin, (C) […] angiotensin II, and (D) 2 nM or 0.1 nM OPN.
Measurement of intracellular calcium mobilization. Primary mouse PTE cells were subcultured onto collagen-coated Nunc coverglass chambers (Nunc, Inc., Naperville, Ill.). Intracellular calcium mobilization was monitored using a fluorescent, calcium-sensitive indicator Indo-1-acetoxymethyl ester (Indo-1 AM) (Molecular Probes, Eugene, Oreg.) and qualified on a Meridian 570 Anchored Cell Analysis (ACAS) equipped with an Innova 90-5W laser adjusted to an output of 100 mW. Cells were washed with HBSS containing 0.3% bovine serum albumin (BSA) and incubated with 1 μM Indo-1 AM at 37° C. for 30 min. Then, the cells were washed 3 times and 1 ml of HBSS containing 0.3% BSA was added. The calcium ratio was determined by scanning single 150×150 μm field containing about 10 cells every 30 sec for a total of 10 min and recording the emission at 500 nm (calcium-free Indo-1) and 400 nm (calcium-saturated Indo-1). Intracellular calcium concentrations were determined by generating a standard curve using a known calcium solution (Gardner et al., 1993, J. Leukocyte Biol. 53:190-196). All data were analyzed with Meridian ACAS statistical software.

The test system of assay [1] is mouse primary kidney PTE cells. Put plainly: Nitrite production over 3 days in PTE cells treated with angiotensin II. As to conditions: for nitrite production: agent alone, 3 days incubation; for effect on A II-induced nitrite production: 3 days incubation with A II. The assay is classed as cell-based. As to the method:
FIG. 7. Angiotensin II enhances nitrite production by a process that can be reversed by OPN in PTE cells. Primary mouse kidney proximal tubule epithelial cells were grown as described in the Examples, infra. Cell were cultured and the medium collected after three days of growth in medium with the indicated supplements.
Preparation of Cells. CD-1 mice aged 4-6 weeks were obtained from Laboratory Animal Services of Nelson Biological Laboratory, Rutgers University, New Jersey. Primary mouse kidney proximal tubule epithelial (PTE) cells were prepared as previously described in Example 1. For NO measurement, cells were subcultured into 24-well tissue culture plates (Linbro, Hamden, Conn.) at 5×10^4 cells per well and incubated overnight for cell attachment. After removal of the medium, the cells were washed twice with Dulbecco's phosphate buffered saline (0.2 g/l KCl, 0.2 g/l KH2 PO4, 8 g/l NaCl, 1.15 g/l Na2 HPO4) and re-fed phenol red-free RPMI 1640 medium (Gibco) containing 10 μg/ml tetrahydrobiopterin (ICN Biochemicals, Cleveland Ohio).
Measurement of NO Production. Synthesis of NO in the medium over a 3-day period was determined by the accumulation of nitrite, a stable oxidized product of NO (Marletta, 1988, Chem. Res. Toxicol. 1:249-257). Nitrite was measured with the Griess reagents using sodium nitrite as standard, as described in Example 1.

Assay [2] relates to constitutive nitric oxide synthase (cNOS) mRNA. Kind of assay: Northern blot analysis of cNOS mRNA in PTE cells. The assay is classed as cell-based, mouse. The settings on record: 12 h. How it is done:
FIGS. 8A and 8B. Norther blot analysis of constitutive nitric oxide synthase (cNOS) mRNA expression. (A) Autoradiogram of RNA separated by agarose-formaldehyde gel electrophoresis, transfered to nylon membranes, and probed with ^32 P-labelled oligonucleotide probes as described in Example 2, infra. (B) Reltive intensities of cNOS to 18S rRNA quantified by densitometry. Cells were treated with buffer, angiotensin (1 μM), angiotensin with osteopontin (0.1 and 0.001 nM), or ionomycin, as indicated in B. The blots in (A) correspond to the bars in (B).
Northern Blot Analysis. Total RNA was isolated using TRI reagent (Molecular Research Center, Cincinnati, Ohio) after 12 h stimulation in the medium (see Example 1). Rat brain constitutive nitric oxide synthase (cNOS) cDNA was obtained as described (Bredt et al., 1991, Nature 351:714-718). Five μg of total RNA was separated on an agarose-formaldehyde gel, transferred onto a nylon membrane (GeneScreen Plus, NEN Research Products, Du Pont, Boston, Mass.) and hybridized with a ^32 P-labeled cNOS cDNA probe. The blot was washed 3 times with 0.5×SSC, 0.1% SDS at 65° C. and autoradiographed for 1 to 3 days. The membrane was stripped and successively hybridized to a mouse 18S rRNA probe. The relative intensities of cNOS to 18S rRNA in the resulting autoradiograms were quantified by densitometry (Pharmacia LKB, UltraScan XL).

Assay [3] relates to primary mouse kidney proximal tubule epithelial cells. Put plainly: Nitrite accumulation (Griess reagent) in PTE cells stimulated with LPS and γ-IFN. The format is cell-based. The settings on record: for effect on LPS and γ-IFN-induced nitrite (NO) production: agent alone on stimulated cells, nitrite at 24 h; for nitrite production relative to the LPS and γ-IFN-stimulated cells: measured at 24 h. As to the method: Cell culture. […] Clin. Invest. 91:2138-43). Briefly, slices of cortex from decapsulated kidneys were washed in unsupplemented RPMI 1640 and cut int 1-2 mm^3 pieces, which were then incubated for 20 min. at 37° C. in Krebs-Henseleit buffer (Sigma Chemical Co., St. Louis, Mo.) supplemented with 10 mM HEPES (pH 7.5), 1 g/l D-glucose, 200 mg/1 sodium pyruvate, 0.125 mg/ml collagenase (Type 1A, Sigma), and 0.6 U/ml dispase (Boehringer Mannheim Biochemica, Indianapolis, Ind.). The digested cortex was centrifuged at 70×g for 3 min and the cells resuspended in RPMI 1640 supplemented with 10 mM HEPES (pH 7.5), 5 μg/ml human transferrin, 50 nM dexamethasone, 5 μg/ml insulin (Gibco, Gaithersberg, Md.), 3% fetal bovine serum, 100 U/ml penicillin and 100 μg/ml streptomycin. For NO measurements, cells were subcultured into 24-well culture plates (Linbro, Hamden, Conn.) at 5×10^4 cells/16-mm well and incubated overnight. After removal of the medium, the cells were washed 3 times with Dulbecco's phosphate buffered saline (Sigma D5652), and re-fed with phenol red-free RPMI 1640 medium containing 2 mM […] and 10 μg/ml tetrahydrobiopterin (ICN Biochemicals, Cleveland, Ohio) in the presence or absence of 100 ng/ml lipopolysaccharide (LPS) (Sigma) and 100 U/ml recombinant mouse γ-interferon (γ-IFN). Measurement of NO (as NO2^-) production. Nitric oxide is a short-lived reactive nitrogen intermediate that in aqueous solution in the absence of oxyhemoproteins or superoxide, is oxidized primarily to nitrite (Ignarro et al., 1993, Proc. Natl. Acad. Sci. U.S.A. 90:8103-07). Under such conditions NO production can be assessed by the accumulation of nitrite in the medium. […] Biochem. 126:131-138).

The next assay relates to rabbit kidney PTE cells. The settings on record: primary cultures of rabbit kidney PTE cells; Norman et al. 1987; cited from earlier work.
Another assay deals with osteoclasts. As to conditions: Zimolo et al. 1993; cited from earlier work.
The subject of a further assay is iNOS protein. Kind of assay: Immunofluorescence analysis of iNOS protein in PTE cells. The format is cell-based, mouse. The settings on record: 100 pM OPN, LPS 100 ng/ml and γIFN 100 U/ml, 48 h. How it is done: FIGS. 4A-D. OPN-induced suppression of iNOS protein in PTE cells. Cells were fixed and permeabilized by incubation of 30 min with 0.4 mM lysophosphatidylcholine in 1% buffered formalin. After washing three times with phosphate-buffered saline, cells were blocked with 0.1% bovine serum albumin in phosphate-buffered saline and then incubated for 4 h first with a 1:10,000 dilution of rabbit peptide antibody to the C-terminal 10 amino acids of iNOS. After washing, the cells were incubated with FITC-conjugated goat-anti rabbit secondary antibody (Cappel, West Chester, Pa.). After an additional 30 min, the cells were washed and analyzed for fluorescence intensity using a Meridian ACAS anchored cell analysis system. A) Upper left, untreated control cells; B) upper right, cells treated for 48 h with LPS (100 ng/ml) and γIFN (100 U/ml); C) lower left, cells treated for 48 h with OPN (100 pM); D) lower right, cells treated for 48 h with LPS, γIFN and OPN. The color bar represents relative fluorescence intensity on the four-decade log scale with white being the most intense.

Assay [4] deals with inducible nitric oxide synthase (iNOS) mRNA. Put plainly: Northern blot analysis of iNOS mRNA in stimulated PTE cells. The format is cell-based, mouse. The settings on record: measured at 8 h, subconfluent PTE cells. As to the method:
FIGS. 3A and 3B. Inhibition of inducible NO-synthase (iNOS) gene induction by OPN. A) Northern blot analysis of iNOS mRNA and 18s rRNA levels in primary mouse kidney epithelial cells 8 h after treatment. B) Accumulation of nitrite in the medium 24 h after treatment. Values are the mean±standard error from three separate plates. Lane 1: control; lanes 2, 4 and 5: stimulated with 100 ng/ml LPS plus 100 U/ml γIFN; lanes 3 and 4: treated with 1 pM OPN; lanes 5 and 6: treated with 100 pM OPN.
Northern blot analysis. Total RNA was isolated using the TRI reagent (Molecular Research Center, Cincinnati, Ohio). The RNA (5 μg) was fractionated on formaldehyde-agarose gels, blotted and probed using standard procedures (Sambrook et al., 1989, supra). The mouse cDNA corresponding to the macrophage inducible nitric oxide synthase gene (iNOS) has been described (Lyons, 1992, J. Biol. Chem. 267:6370-74).

Read-outs that look alike come from different tables or passages of the source.

In the case of `C[C@H](CCC(=O)O)C[C@H](C)C[C@H](C)C(=O)/C=C(\O)[C@H](C)C[C@H](C)C/C=C/[C@@H](C)[C@@H](O)[C@@H](C)[C@@H](O)C[C@@H]1CC[C@@](C)([C@H]2CC[C@@](C)([C@@H](C)O)O2)O1` [Ionomycin], the calcium mobilization entry in the assay on primary mouse PTE cells (10 μM ionomycin) was “an increase in cytosolic free calcium”. Besides, the nitrite production entry in assay [1] is recorded as “increased nitrite production”. Moreover, the “cNOS mRNA abundance” value in assay [2] (agent alone) is “greatly increase”.

As to `CNC(=N)NCCC[C@H](N)C(=O)O` [L-NMA, N^G -methyl-L-arginine, reference compound], the “effect on LPS and γ-IFN-induced nitrite (NO) production” value in assay [3] is reported as “Inhibition of nitrite accumulation”. In assay [1], the “effect on A II-induced nitrite production” value is on record as “inhibited the nitrite production induced by A II”.

Take “A II: angiotensin (the x-mer peptide produced from angiotensinogen), obtained from Sigma (DRVYIHPF; Angiotensin-2; UniProt P01019 25-32, looked up)”: the concentration necessary to induce a transient rise in cytosolic free calcium with rabbit kidney PTE cells is 5 µM. The calcium mobilization entry with primary mouse PTE cells was “a fast and transient rise in cytosolic free calcium levels”; with primary mouse PTE cells (1 μM, within 10 min) it was “only a delayed and small transient response in calcium mobilization”. Besides, the nitrite production entry in assay [1] is given as “dose-dependent increase in nitrite accumulation”. Also, the “enhancement of cNOS mRNA” value in assay [2] (angiotensin 1 μM, densitometry relative to rRNA) was found to be 3.5 fold.

For Ac-PTVDVPDGRGDSLAYGLRSK-NH2 [OPP], the “effect on LPS and γ-IFN-induced nitrite (NO) production” value in assay [3] is “effective at reducing LPS and γ-IFN-induced NO production”.

Take “OPN (purified from urine): OPN purified from urine, used by Zimolo et al. (cited)”: the “concentration raising intracellular free Ca++ level” value in the assay with osteoclasts is reported as 1 pM.

“OPN: Recombinant human osteopontin, secreted 44 kDa RGD-containing phosphoprotein, purified from transfected MH2 human embryonic kidney cells”: the “iNOS protein concentration in stimulated cells” value in the assay on iNOS protein is listed as “diminished concentration of iNOS protein”. For the same molecule, the “concentration dependence of calcium reduction” value in the assay on primary mouse PTE cells (2 nM compared with 0.1 nM OPN) is “the smaller concentration of OPN was more potent in reducing calcium levels”. For the same molecule, in the assay on primary mouse PTE cells (2 nM or 0.1 nM OPN), the calcium mobilization result was “a reduction in the cytosolic free calcium”. For the same molecule, the “nitrite production relative to the LPS and γ-IFN-stimulated cells” value in assay [3] (1 pM OPN added simultaneously with inducers) worked out at 45%; in assay [3] (100 pM OPN added simultaneously with inducers), 24%. For the same molecule, the “time-dependence of inhibition of NO production” value in assay [3] (OPN 100 pM added 60 min prior to γ-IFN and LPS, nitrite after 24 h) is recorded as “more inhibitory than when added simultaneously”. In addition, the “effective concentration for suppression of NO production” value in assay [3] (confluent cells) is “required higher concentrations”; in assay [3] (subconfluent PTE cells), ~ 10 pM. Further, the “level of the 4 kb mRNA species (iNOS mRNA), normalized to 18 S rRNA” value came to 54% in assay [4] (1 pM OPN added simultaneously with LPS and γ-IFN); 31% in assay [4] (100 pM OPN added simultaneously with LPS and γ-IFN). In addition, the “effect on A II-induced nitrite production” value in assay [1] is listed as “almost completely blocked”. Moreover, in assay [2] (OPN 0.1 nM or 1 pM with A II), the “effect on amount of A II-induced cNOS mRNA” value is reported as “only a modest effect”.

The record behind these values is patent publication US5695761A, “Suppression of nitric oxide production by osteopontin” (Rutgers University, priority 1993, dated 1997).
